Laboratory results taken from ChEMBL document CHEMBL6109069 (J Med Chem, 2025).
Active and inactive are the calls of the source. No cut-off for these calls is given here. Non-standard residues stand in square brackets, D forms with d. Residues, ends and D or L forms follow the SMILES beside them. *: point of attachment. Leu(3R-OH) = CC(C)[C@@H](O)[C@H](N)C(=O)O; NH((S)CH(Me)CH2NMe2) = C[C@@H](CN(C)C)N*; NH(2-morpholinoethyl) = C(CN1CCOCC1)N*; Pro(4S-Me) = C[C@@H]1CN[C@H](C(=O)O)C1; Benzoyl(4-F) = O=C(c1ccc(F)cc1)*; hCha = N[C@@H](CCC1CCCCC1)C(=O)O; NHCH2CH2NMe2 = CN(C)CCN*; Hexanoyl = CCCCCC(=O)*; Aib = CC(C)(N)C(=O)O; X2 = CN(CCN*)CC(F)F; βAla = NCCC(=O)O

What was measured:
[1] = Inhibition of Bovine heart ATP synthase assessed as inhibition constant by Michaelis-Menten plot analysis; set-up: species or system Bos taurus
Lipid bilayer = assay: Disruption of membrane integrity in bacterial cell membrane mimic POPC/POPG LUVs assessed as calcein leakage at 500 nM measured for 1 mins by fluorescence spectroscopy analysis
[2] = test system: Trypanosoma brucei rhodesiense; assay: Antitrypanosomal activity against Trypanosoma brucei rhodesiense STIB 900; type: functional, organism-based
Leishmania donovani = assay: Antitrypanosomal activity against Leishmania donovani MHOM/ET/67/L82 incubated for 72 hrs by resazurin staining based analysis; type: functional, organism-based; settings: MHOM/ET/67/L82, 72 h
Trypanosoma cruzi = assay: Antitrypanosomal activity against Trypanosoma cruzi Tulahuen C4 incubated for 4 days; type: functional, organism-based; settings: Tulahuen C4, 96 h
Plasmodium falciparum = assay: Antiplasmodial activity against Plasmodium falciparum NF54 incubated for 48 hrs; type: functional, organism-based; settings: NF54, 48 h
[3] = Cytotoxicity against rat L6 cells assessed as cell viability incubated for 72 hrs by CCK-8 assay
[4] = test system: Trypanosoma brucei rhodesiense; assay: Antitrypanosomal activity against Trypanosoma brucei rhodesiense STIB 900 incubated for 72 hrs by resazurin staining based analysis; type: functional, organism-based; settings: STIB 900, 72 h
Fibroblast [5] = assay: Reduction in respiration rate in human Fibroblast cells assessed as decrease in coupling efficiency at 50 nM incubated up to 60 mins; type: functional, cell-based
Fibroblast [6] = assay: Reduction in respiration rate in human Fibroblast cells assessed as decrease in coupling efficiency at > 200 nM incubated up to 60 mins; type: functional, cell-based

| IC50 [2] | Structure (SMILES) | Ki [1] | Ki ([1]; read-out: Ki) | Activity (Lipid bilayer) | IC50 (Leishmania donovani) | IC50 (Trypanosoma cruzi) | IC50 (Plasmodium falciparum) | IC50 at 72 h [3] | IC50 [4] | Activity (Fibroblast [5]) | Activity (Fibroblast [6]) |
| --- | --- | --- | --- | --- | --- | --- | --- | --- | --- | --- | --- |
| – | N#CC(C#N)=NNc1ccc(OC(F)(F)F)cc1 | Not_determined | – | – | – | – | – | – | – | – | – |
| – | CCCCCC(=O)N1CCC[C@H]1C(=O)N[C@@H](CCC1CCCCC1)C(=O)N[C@@H](CC(C)C)C(=O)NC(C)(C)C(=O)N[C@@H](CC(C)C)C(=O)N[C@@H](CC(C)C)C(=O)NC(C)(C)C(=O)NC(C)(C)C(=O)NCCC(=O)N[C@@H](C)CN(C)C (Hexanoyl-P[hCha]L[Aib]LL[Aib][Aib][βAla]-{NH((S)CH(Me)CH2NMe2)}) | – | 139 nM | – | – | – | – | – | – | – | – |
| 3.9 nM | CC(C)C[C@H](NC(=O)[C@H](CCC1CCCCC1)NC(=O)[C@@H]1CCCN1C(=O)c1ccc(F)cc1)C(=O)NC(C)(C)C(=O)N[C@@H](CC(C)C)C(=O)N[C@@H](CC(C)C)C(=O)NC(C)(C)C(=O)NC(C)(C)C(=O)NCCC(=O)NCCN(C)C ({Benzoyl(4-F)}-P[hCha]L[Aib]LL[Aib][Aib][βAla]-NHCH2CH2NMe2) | – | 455 nM | Active | – | – | – | – | – | – | – |
| 72 nM | CC(C)C[C@H](NC(=O)[C@H](CCC1CCCCC1)NC(=O)[C@@H]1CCCN1C(=O)c1ccc(F)cc1)C(=O)NC(C)(C)C(=O)N[C@@H](CC(C)C)C(=O)N[C@@H](CC(C)C)C(=O)NC(C)(C)C(=O)NC(C)(C)C(=O)NCCC(=O)NCCN1CCOCC1 ({Benzoyl(4-F)}-P[hCha]L[Aib]LL[Aib][Aib][βAla]-{NH(2-morpholinoethyl)}) | – | 703 nM | – | – | – | – | – | – | – | – |
| – | CC(C)C[C@H](NC(=O)[C@H](CC(C)C)NC(=O)C(C)(C)NC(=O)[C@@H](NC(=O)[C@H](CCC1CCCCC1)NC(=O)[C@@H]1CCCN1C(=O)c1ccc(F)cc1)[C@H](O)C(C)C)C(=O)NC(C)(C)C(=O)NC(C)(C)C(=O)NCCC(=O)N[C@@H](C)CN(C)C ({Benzoyl(4-F)}-P[hCha][Leu(3R-OH)][Aib]LL[Aib][Aib][βAla]-{NH((S)CH(Me)CH2NMe2)}) | – | 134 nM | – | 6.7 nM | 1130 nM | 3 nM | 1230 nM | 1.3 nM | – | – |
| – | CC(C)C[C@H](NC(=O)[C@H](CCC1CCCCC1)NC(=O)[C@@H]1C[C@H](C)CN1C(=O)c1ccc(F)cc1)C(=O)NC(C)(C)C(=O)N[C@@H](CC(C)C)C(=O)N[C@@H](CC(C)C)C(=O)NC(C)(C)C(=O)NC(C)(C)C(=O)NCCC(=O)N[C@@H](C)CN(C)C ({Benzoyl(4-F)}-[Pro(4S-Me)][hCha]L[Aib]LL[Aib][Aib][βAla]-{NH((S)CH(Me)CH2NMe2)}) | – | 84 nM | – | 0.34 nM | 3.9 nM | 1.3 nM | 266 nM | 0.3 nM | Active | Active |
| – | CC(C)C[C@H](NC(=O)[C@H](CC(C)C)NC(=O)C(C)(C)NC(=O)[C@@H](NC(=O)[C@H](CCC1CCCCC1)NC(=O)[C@@H]1C[C@H](C)CN1C(=O)c1ccc(F)cc1)[C@H](O)C(C)C)C(=O)NC(C)(C)C(=O)NC(C)(C)C(=O)NCCC(=O)N[C@@H](C)CN(C)C ({Benzoyl(4-F)}-[Pro(4S-Me)][hCha][Leu(3R-OH)][Aib]LL[Aib][Aib][βAla]-{NH((S)CH(Me)CH2NMe2)}) | – | 55 nM | – | 10 nM | 423 nM | 3.4 nM | 1340 nM | 0.63 nM | Active | Active |

| Structure (SMILES) | IC50 [2] | Ki [1] | Ki ([1]; read-out: Ki) | Activity (Lipid bilayer) | IC50 (Leishmania donovani) | IC50 (Trypanosoma cruzi) | IC50 (Plasmodium falciparum) | IC50 at 72 h [3] | IC50 [4] | Activity (Fibroblast [5]) | Activity (Fibroblast [6]) |
| --- | --- | --- | --- | --- | --- | --- | --- | --- | --- | --- | --- |
| CC(C)C[C@H](NC(=O)[C@H](CCC1CCCCC1)NC(=O)[C@@H]1CCCN1C(=O)c1ccc(F)cc1)C(=O)NC(C)(C)C(=O)N[C@@H](CC(C)C)C(=O)N[C@@H](CC(C)C)C(=O)NC(C)(C)C(=O)NC(C)(C)C(=O)NCCC(=O)NCCN(C)CC(F)F ({Benzoyl(4-F)}-P[hCha]L[Aib]LL[Aib][Aib][βAla]-X2) | 393 nM | – | 499 nM | Active | – | – | – | – | – | – | – |
